{"source": "patent US12098176B2", "about": "“Keratin BD-4, preparation method, and pharmaceutical composition and use thereof” (Institute of Materia Medica, Chinese Academy of Medical …, priority 2019, dated 2024)", "tested_on": "phenol red excretion in mice", "assay": "Expectorant test, phenol red excretion method in mice", "assay_type": "in vivo, mouse", "description": "Experimental example 5 The pharmacodynamic test of protein BD-4 (Example 4 protein) on the expectorant of phenol red excretion method in mice.\n• Solvent control group; • Mucosultan 30 mg/kg group; • Protein BD-4, 20 mg/kg group, 50 mg/kg group. Method: Model Preparation and Administration:\nThe animals were fasted and watered 16 hours before the experiment. Orally administered Mucosultan and different doses of protein BD-4 (administration volume 10 ml/kg) in groups, and the solvent control group was given the same volume of distilled water. One hour later, 2.5% phenol red solution was injected intraperitoneally, Kill the mouse by removing the neck after 30 minutes. Take the trachea from below the thyroid cartilage to the branch of the trachea. Put the trachea into 3 ml 5% NaHCO3 solution and let it stand for 3 hours. Take 1 ml of the supernatant and centrifuge at 3000 rpm for 5 minutes. Measure and record the absorbance at 546 nm. According to the standard curve of phenol red, the excretion of phenol red was calculated.\nRecord the time point of oral administration, the time point of intraperitoneal injection of 2.5% phenol red solution, and the time point of tracheal extraction respectively; The absorbance of each group of samples was measured by the microplate reader at 546 nm, Calculate the excretion of phenol red according to the standard curve of phenol red. […]", "note": "Where a name gives a salt, the structure may show the parent alone."}
{"smiles": "Nc1c(Br)cc(Br)cc1CN[C@H]1CC[C@H](O)CC1", "note": "[Mucosolvan, ambroxol hydrochloride, reference compound]", "values": [{"measurement": "Phenol red excretion", "setting": "Mucosolvan 30 mg/kg oral, X ± SEM", "result": "1.138 ± 0.079", "unit": "µg/mL"}, {"measurement": "Phenol red excretion vs solvent control group", "setting": "Mucosultan 30 mg/kg, P<0.05", "result": "significantly increased"}]}
